Laboratory results as given in patent publication US20260158017A1, “KIF18A INHIBITOR” (WIGEN BIOMEDICINE TECHNOLOGY (SHANGHAI) CO., LTD., priority 2021, published 2026).

These compounds were tested against T1, Recombinant human KIF18A (1-467His-tagged) protein (Homo sapiens, UniProt Q8NI77) (assay: KIF18A enzyme assay (microtubule-stimulated ATPase activity, ADP-Glo)). Conditions: 30 nM KIF18A, 75 μM ATP, 30 μg/mL pig microtubules; read-out: Inhibitory activity against KIF18A IC50.
T1 construct: Recombinant human KIF18A (1-467His-tagged) protein; His; made in house
T1 sequence (Q8NI77 1-467): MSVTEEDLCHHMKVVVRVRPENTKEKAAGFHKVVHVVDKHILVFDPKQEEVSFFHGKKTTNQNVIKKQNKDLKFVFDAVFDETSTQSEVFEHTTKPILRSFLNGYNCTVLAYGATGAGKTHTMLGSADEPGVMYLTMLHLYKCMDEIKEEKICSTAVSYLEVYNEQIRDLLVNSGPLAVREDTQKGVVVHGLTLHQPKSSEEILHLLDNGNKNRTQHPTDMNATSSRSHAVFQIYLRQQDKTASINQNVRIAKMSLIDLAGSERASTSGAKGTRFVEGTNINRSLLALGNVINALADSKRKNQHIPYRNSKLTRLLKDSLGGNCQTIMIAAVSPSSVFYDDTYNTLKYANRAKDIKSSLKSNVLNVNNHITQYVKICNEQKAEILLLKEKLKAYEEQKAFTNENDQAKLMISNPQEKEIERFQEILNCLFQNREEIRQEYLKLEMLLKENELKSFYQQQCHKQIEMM
T1 sequence (P02550 whole entry partner): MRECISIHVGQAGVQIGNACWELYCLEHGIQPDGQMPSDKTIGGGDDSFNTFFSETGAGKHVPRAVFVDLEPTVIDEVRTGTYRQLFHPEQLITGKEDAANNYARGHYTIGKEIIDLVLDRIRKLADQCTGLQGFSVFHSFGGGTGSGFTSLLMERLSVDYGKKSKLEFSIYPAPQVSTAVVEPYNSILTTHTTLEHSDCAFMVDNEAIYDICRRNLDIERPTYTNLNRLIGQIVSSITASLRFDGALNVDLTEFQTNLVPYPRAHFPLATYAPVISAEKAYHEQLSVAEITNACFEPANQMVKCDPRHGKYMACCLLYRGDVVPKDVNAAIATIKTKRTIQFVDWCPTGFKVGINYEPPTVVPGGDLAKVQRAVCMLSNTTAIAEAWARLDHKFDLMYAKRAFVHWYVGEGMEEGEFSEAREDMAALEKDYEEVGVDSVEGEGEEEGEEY
T1 sequence (P02554 whole entry partner): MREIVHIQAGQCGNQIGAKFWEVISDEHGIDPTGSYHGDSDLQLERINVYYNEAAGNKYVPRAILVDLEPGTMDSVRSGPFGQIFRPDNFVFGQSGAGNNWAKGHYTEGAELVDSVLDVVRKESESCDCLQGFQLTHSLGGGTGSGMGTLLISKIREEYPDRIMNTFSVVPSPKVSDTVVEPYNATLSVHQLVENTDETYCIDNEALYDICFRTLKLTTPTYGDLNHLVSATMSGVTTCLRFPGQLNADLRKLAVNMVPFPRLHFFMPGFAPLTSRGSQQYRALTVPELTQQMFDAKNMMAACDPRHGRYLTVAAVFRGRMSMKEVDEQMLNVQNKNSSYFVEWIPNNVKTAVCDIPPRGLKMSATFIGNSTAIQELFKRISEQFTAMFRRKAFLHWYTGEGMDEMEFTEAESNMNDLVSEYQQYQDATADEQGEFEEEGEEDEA
Format: biochemical
In short: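 Buffer 15 mM Tris pH 7.5, 10 mM MgCl2, 0.01% Pluronic F-68, 1 μM paclitaxel, 30 μg/mL pig microtubules; reactions at room temperature. IC50 from inhibition relative to DMSO.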
`COc1ccc(NC(=O)c2ccc(NS(=O)(=O)[C@H](C)CO)cc2N2CCC3(CC2)CC3)nc1N1CCC(F)(F)CC1` [Compound 270] was tested, and the IC50 was ≤ 100 nM.
With `COc1ccc(NC(=O)c2ccc(NS(=O)(=O)[C@@H](C)CO)cc2N2CCC3(CC2)CC3)nc1N1CCO[C@H](C)C1` [Compound 271] the IC50 was ≤ 100 nM.
For `COc1ccc(NC(=O)c2ccc(NS(=O)(=O)[C@H](C)CO)cc2N2CCC3(CC2)CC3)nc1N1CCO[C@H](C)C1` [Compound 272], the IC50 was ≤ 100 nM.
With `COc1ccc(NC(=O)c2ccc(S(=O)(=O)NCCO)cc2N2CCC3(CC2)CC3)nc1N1CCO[C@H](C)C1` [Compound 274] the IC50 was ≤ 100 nM.
With `COc1ccc(NC(=O)c2ccc(S(=O)(=O)NCCO)cc2N2CCC3(CC2)CC3)nc1N1CCO[C@@H](C)C1` [Compound 275] the IC50 was ≤ 100 nM.
In the case of `COc1ccc(NC(=O)c2ccc(S(=O)(=O)NCCO)cc2N2CCC3(CC2)CC3)nc1N1CC(F)(F)C1` [Compound 276], the IC50 is reported as ≤ 100 nM.
`COc1ccc(NC(=O)c2ccc(S(=O)(=O)NCCO)cc2N2CCC3(CC2)CC3)nc1OCCC(F)(F)F` [Compound 277] was tested, and the IC50 was ≤ 100 nM.
`COc1ccc(NC(=O)c2ccc(S(=O)(=O)NCCO)cc2N2CCC3(CC2)CC3)nc1N1CCC2(CC2)C1` [Compound 278] was tested, and the IC50 was ≤ 100 nM.
In the case of `COc1ccc(NC(=O)c2ccc(S(=O)(=O)NCCO)cc2N2CCC3(CC2)CC3)nc1OC1CCC1` [Compound 279], the IC50 is reported as ≤ 100 nM.
In the case of `COc1ccc(NC(=O)c2ccc(S(=O)(=O)NCCO)cc2N2CCC3(CC2)CC3)nc1N1CCC(C)(F)C1` (centres unmarked) [Compound 280], the IC50 is reported as ≤ 100 nM.
`COc1ccc(NC(=O)c2ccc(S(=O)(=O)NCCO)cc2N2CCC3(CC2)CC3)nc1N1CCC(F)CC1` [Compound 281] was tested, and the IC50 was ≤ 100 nM.
With `COc1ccc(NC(=O)c2ccc(S(=O)(=O)NCCO)cc2N2CCC3(CC2)CC3)nc1N1CC2CC2C1` (centres unmarked) [Compound 282] the IC50 was ≤ 100 nM.
With `COc1ccc(NC(=O)c2ccc(S(=O)(=O)NCCO)cc2N2CCC3(CC2)CC3)nc1NC(C)(C)CO` [Compound 283] the IC50 was ≤ 100 nM.
For `COc1ccc(NC(=O)c2ccc(S(=O)(=O)NCCO)cc2N2CCC3(CC2)CC3)nc1N1CCOCC1` [Compound 284], the IC50 was ≤ 100 nM.
With `COc1ccc(NC(=O)c2ccc(S(=O)(=O)N[C@@H](C)CO)cc2N2CCC3(CC2)CC3)nc1N1CCC(F)(F)CC1` [Compound 285] the IC50 was ≤ 100 nM.
`COc1ccc(NC(=O)c2ccc(S(=O)(=O)N[C@H](C)CO)cc2N2CCC3(CC2)CC3)nc1N1CCC(F)(F)CC1` [Compound 286] was tested, and the IC50 was ≤ 100 nM.
With `COc1ccc(NC(=O)c2ccc(S(=O)(=O)N[C@@H](C)CO)cc2N2CCC3(CC2)CC3)nc1N1CCO[C@H](C)C1` [Compound 287] the IC50 was ≤ 100 nM.
For `COc1ccc(NC(=O)c2ccc(S(=O)(=O)N[C@H](C)CO)cc2N2CCC3(CC2)CC3)nc1N1CCO[C@H](C)C1` [Compound 288], the IC50 was ≤ 100 nM.
For `COc1ccc(NC(=O)c2cnc(NS(=O)(=O)CCO)cc2N2CCC3(CC2)CC3)nc1N1CCO[C@H](C)C1` [Compound 290], the IC50 was ≤ 100 nM.
For `COc1ccc(NC(=O)c2cnc(NS(=O)(=O)CCO)cc2N2CCC3(CC2)CC3)nc1N1CCO[C@@H](C)C1` [Compound 291], the IC50 was ≤ 100 nM.
`COc1ccc(NC(=O)c2cnc(NS(=O)(=O)CCO)cc2N2CCC3(CC2)CC3)nc1N1CC(F)(F)C1` [Compound 292] was tested, and the IC50 was ≤ 100 nM.
`COc1ccc(NC(=O)c2cnc(NS(=O)(=O)CCO)cc2N2CCC3(CC2)CC3)nc1OCCC(F)(F)F` [Compound 293] was tested, and the IC50 was ≤ 100 nM.
`COc1ccc(NC(=O)c2cnc(NS(=O)(=O)CCO)cc2N2CCC3(CC2)CC3)nc1N1CCC2(CC2)C1` [Compound 294] was tested, and the IC50 was ≤ 100 nM.
For `COc1ccc(NC(=O)c2cnc(NS(=O)(=O)CCO)cc2N2CCC3(CC2)CC3)nc1OC1CCC1` [Compound 295], the IC50 was ≤ 100 nM.
In the case of `COc1ccc(NC(=O)c2cnc(NS(=O)(=O)CCO)cc2N2CCC3(CC2)CC3)nc1N1CCC(C)(F)C1` (centres unmarked) [Compound 296], the IC50 is reported as ≤ 100 nM.
`COc1ccc(NC(=O)c2cnc(NS(=O)(=O)CCO)cc2N2CCC3(CC2)CC3)nc1N1CCC(F)CC1` [Compound 297] was tested, and the IC50 was ≤ 100 nM.
`COc1ccc(NC(=O)c2cnc(NS(=O)(=O)CCO)cc2N2CCC3(CC2)CC3)nc1N1CC2CC2C1` (centres unmarked) [Compound 298] was tested, and the IC50 was ≤ 100 nM.
For `COc1ccc(NC(=O)c2cnc(NS(=O)(=O)CCO)cc2N2CCC3(CC2)CC3)nc1NC(C)(C)CO` [Compound 299], the IC50 was ≤ 100 nM.
`COc1ccc(NC(=O)c2cnc(NS(=O)(=O)CCO)cc2N2CCC3(CC2)CC3)nc1N1CCOCC1` [Compound 300] was tested, and the IC50 was ≤ 100 nM.
For `COc1ccc(NC(=O)c2cnc(NS(=O)(=O)[C@@H](C)CO)cc2N2CCC3(CC2)CC3)nc1N1CCC(F)(F)CC1` [Compound 301], the IC50 was ≤ 100 nM.
In the case of `COc1ccc(NC(=O)c2cnc(NS(=O)(=O)[C@H](C)CO)cc2N2CCC3(CC2)CC3)nc1N1CCC(F)(F)CC1` [Compound 302], the IC50 is reported as ≤ 100 nM.
In the case of `COc1ccc(NC(=O)c2cnc(NS(=O)(=O)[C@@H](C)CO)cc2N2CCC3(CC2)CC3)nc1N1CCO[C@H](C)C1` [Compound 303], the IC50 is reported as ≤ 100 nM.
In the case of `COc1ccc(NC(=O)c2cnc(NS(=O)(=O)[C@H](C)CO)cc2N2CCC3(CC2)CC3)nc1N1CCO[C@H](C)C1` [Compound 304], the IC50 is reported as ≤ 100 nM.
With `COc1ccc(NC(=O)c2cnc(S(=O)(=O)NCCO)cc2N2CCC3(CC2)CC3)nc1N1CCO[C@H](C)C1` [Compound 306] the IC50 was ≤ 100 nM.
In the case of `COc1ccc(NC(=O)c2cnc(S(=O)(=O)NCCO)cc2N2CCC3(CC2)CC3)nc1N1CCO[C@@H](C)C1` [Compound 307], the IC50 is reported as ≤ 100 nM.
In the case of `COc1ccc(NC(=O)c2cnc(S(=O)(=O)NCCO)cc2N2CCC3(CC2)CC3)nc1N1CC(F)(F)C1` [Compound 308], the IC50 is reported as ≤ 100 nM.
With `COc1ccc(NC(=O)c2cnc(S(=O)(=O)NCCO)cc2N2CCC3(CC2)CC3)nc1OCCC(F)(F)F` [Compound 309] the IC50 was ≤ 100 nM.
`COc1ccc(NC(=O)c2cnc(S(=O)(=O)NCCO)cc2N2CCC3(CC2)CC3)nc1N1CCC2(CC2)C1` [Compound 310] was tested, and the IC50 was ≤ 100 nM.
With `COc1ccc(NC(=O)c2cnc(S(=O)(=O)NCCO)cc2N2CCC3(CC2)CC3)nc1OC1CCC1` [Compound 311] the IC50 was ≤ 100 nM.
`COc1ccc(NC(=O)c2cnc(S(=O)(=O)NCCO)cc2N2CCC3(CC2)CC3)nc1N1CCC(C)(F)C1` (centres unmarked) [Compound 312] was tested, and the IC50 was ≤ 100 nM.
In the case of `COc1ccc(NC(=O)c2cnc(S(=O)(=O)NCCO)cc2N2CCC3(CC2)CC3)nc1N1CCC(F)CC1` [Compound 313], the IC50 is reported as ≤ 100 nM.
In the case of `COc1ccc(NC(=O)c2cnc(S(=O)(=O)NCCO)cc2N2CCC3(CC2)CC3)nc1N1CC2CC2C1` (centres unmarked) [Compound 314], the IC50 is reported as ≤ 100 nM.
In the case of `COc1ccc(NC(=O)c2cnc(S(=O)(=O)NCCO)cc2N2CCC3(CC2)CC3)nc1NC(C)(C)CO` [Compound 315], the IC50 is reported as ≤ 100 nM.
In the case of `COc1ccc(NC(=O)c2cnc(S(=O)(=O)NCCO)cc2N2CCC3(CC2)CC3)nc1N1CCOCC1` [Compound 316], the IC50 is reported as ≤ 100 nM.
`COc1ccc(NC(=O)c2cnc(S(=O)(=O)N[C@@H](C)CO)cc2N2CCC3(CC2)CC3)nc1N1CCC(F)(F)CC1` [Compound 317] was tested, and the IC50 was ≤ 100 nM.
With `COc1ccc(NC(=O)c2cnc(S(=O)(=O)N[C@H](C)CO)cc2N2CCC3(CC2)CC3)nc1N1CCC(F)(F)CC1` [Compound 318] the IC50 was ≤ 100 nM.
For `COc1ccc(NC(=O)c2cnc(S(=O)(=O)N[C@@H](C)CO)cc2N2CCC3(CC2)CC3)nc1N1CCO[C@H](C)C1` [Compound 319], the IC50 was ≤ 100 nM.
`COc1ccc(NC(=O)c2cnc(S(=O)(=O)N[C@H](C)CO)cc2N2CCC3(CC2)CC3)nc1N1CCO[C@H](C)C1` [Compound 320] was tested, and the IC50 was ≤ 100 nM.
For `COc1ccc(C(=O)Nc2ccc(NS(=O)(=O)CCO)cc2N2CCC3(CC2)CC3)nc1N1CCO[C@H](C)C1` [Compound 322], the IC50 was ≤ 100 nM.
In the case of `COc1ccc(C(=O)Nc2ccc(NS(=O)(=O)CCO)cc2N2CCC3(CC2)CC3)nc1N1CCO[C@@H](C)C1` [Compound 323], the IC50 is reported as ≤ 100 nM.
With `COc1ccc(C(=O)Nc2ccc(NS(=O)(=O)CCO)cc2N2CCC3(CC2)CC3)nc1N1CC(F)(F)C1` [Compound 324] the IC50 was ≤ 100 nM.
In the case of `COc1ccc(C(=O)Nc2ccc(NS(=O)(=O)CCO)cc2N2CCC3(CC2)CC3)nc1OCCC(F)(F)F` [Compound 325], the IC50 is reported as ≤ 100 nM.
`COc1ccc(C(=O)Nc2ccc(NS(=O)(=O)CCO)cc2N2CCC3(CC2)CC3)nc1N1CCC2(CC2)C1` [Compound 326] was tested, and the IC50 was ≤ 100 nM.
For `COc1ccc(C(=O)Nc2ccc(NS(=O)(=O)CCO)cc2N2CCC3(CC2)CC3)nc1OC1CCC1` [Compound 327], the IC50 was ≤ 100 nM.
`COc1ccc(C(=O)Nc2ccc(NS(=O)(=O)CCO)cc2N2CCC3(CC2)CC3)nc1N1CCC(C)(F)C1` (centres unmarked) [Compound 328] was tested, and the IC50 was ≤ 100 nM.
For `COc1ccc(C(=O)Nc2ccc(NS(=O)(=O)CCO)cc2N2CCC3(CC2)CC3)nc1N1CCC(F)CC1` [Compound 329], the IC50 was ≤ 100 nM.
For `COc1ccc(C(=O)Nc2ccc(NS(=O)(=O)CCO)cc2N2CCC3(CC2)CC3)nc1N1CC2CC2C1` (centres unmarked) [Compound 330], the IC50 was ≤ 100 nM.
`COc1ccc(C(=O)Nc2ccc(NS(=O)(=O)CCO)cc2N2CCC3(CC2)CC3)nc1NC(C)(C)CO` [Compound 331] was tested, and the IC50 was ≤ 100 nM.
`COc1ccc(C(=O)Nc2ccc(NS(=O)(=O)CCO)cc2N2CCC3(CC2)CC3)nc1N1CCOCC1` [Compound 332] was tested, and the IC50 was ≤ 100 nM.
With `COc1ccc(C(=O)Nc2ccc(NS(=O)(=O)[C@@H](C)CO)cc2N2CCC3(CC2)CC3)nc1N1CCC(F)(F)CC1` [Compound 333] the IC50 was ≤ 100 nM.
For `COc1ccc(C(=O)Nc2ccc(NS(=O)(=O)[C@H](C)CO)cc2N2CCC3(CC2)CC3)nc1N1CCC(F)(F)CC1` [Compound 334], the IC50 was ≤ 100 nM.
In the case of `COc1ccc(C(=O)Nc2ccc(NS(=O)(=O)[C@@H](C)CO)cc2N2CCC3(CC2)CC3)nc1N1CCO[C@H](C)C1` [Compound 335], the IC50 is reported as ≤ 100 nM.
`COc1ccc(C(=O)Nc2ccc(NS(=O)(=O)[C@H](C)CO)cc2N2CCC3(CC2)CC3)nc1N1CCO[C@H](C)C1` [Compound 336] was tested, and the IC50 was ≤ 100 nM.
With `COc1ccc(C(=O)Nc2ccc(S(=O)(=O)NCCO)cc2N2CCC3(CC2)CC3)nc1N1CCO[C@H](C)C1` [Compound 338] the IC50 was ≤ 100 nM.
`COc1ccc(C(=O)Nc2ccc(S(=O)(=O)NCCO)cc2N2CCC3(CC2)CC3)nc1N1CCO[C@@H](C)C1` [Compound 339] was tested, and the IC50 was ≤ 100 nM.
